Molecular target: T1, homogentisate solanesyltransferase (CrHST) (Chlamydomonas reinhardtii, UniProt A1JHN0)
T1 construct: gene HST; N-terminal GST tag (pDEST15), expressed in E. coli BL21 AI
Test: biochemical

T1 sequence (A1JHN0 51-370): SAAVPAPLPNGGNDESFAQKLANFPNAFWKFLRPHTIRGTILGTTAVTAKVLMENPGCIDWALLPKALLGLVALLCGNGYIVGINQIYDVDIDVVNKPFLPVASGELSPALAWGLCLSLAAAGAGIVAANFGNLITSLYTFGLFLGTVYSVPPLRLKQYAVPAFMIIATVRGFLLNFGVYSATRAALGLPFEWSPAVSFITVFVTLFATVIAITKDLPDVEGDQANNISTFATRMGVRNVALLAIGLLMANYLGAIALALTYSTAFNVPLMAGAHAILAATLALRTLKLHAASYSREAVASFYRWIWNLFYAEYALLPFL

How did the IC50 turn out when `Cc1cccc(C2CC2)c1Oc1nnc(Cl)cc1O` [DMC, Des-Morpholinocarbony Cyclopyrimorate] was run?
Its IC50 is 3.63 ± 0.53 µM.

From paper PMC10920428 (Applied Microbiology and Biotechnology, 2024)
